Positions of bridges follow the written chain, without caps; N, C: chain ends. Non-standard residues stand in square brackets, D forms with d. Residues, ends and D or L forms follow the SMILES beside them. *: point of attachment. X1 = N=C(N)NCCC[C@H]1C(=O)N[C@@H](C(N)=O)CN1*; dNle = CCCC[C@@H](N)C(=O)O; Heptanoyl = CCCCCCC(=O)*
Key:
human lung tissues = test: Human precision-cut lung slice relaxation, precontracted with carbachol; assay type: cell-based
human NEP (hNEP) = human NEP (hNEP) (Homo sapiens, UniProt P08473); test: Metabolism by human neutral endopeptidase (hNEP) solution at 37° C.; assay type: in vitro ADME; conditions: substrate concentration 50 μM; for remaining at 2 h, 50 μM: read-out: percent remaining after 2-hour exposure to hNEP
Chain of human NEP (hNEP) (P08473 whole entry): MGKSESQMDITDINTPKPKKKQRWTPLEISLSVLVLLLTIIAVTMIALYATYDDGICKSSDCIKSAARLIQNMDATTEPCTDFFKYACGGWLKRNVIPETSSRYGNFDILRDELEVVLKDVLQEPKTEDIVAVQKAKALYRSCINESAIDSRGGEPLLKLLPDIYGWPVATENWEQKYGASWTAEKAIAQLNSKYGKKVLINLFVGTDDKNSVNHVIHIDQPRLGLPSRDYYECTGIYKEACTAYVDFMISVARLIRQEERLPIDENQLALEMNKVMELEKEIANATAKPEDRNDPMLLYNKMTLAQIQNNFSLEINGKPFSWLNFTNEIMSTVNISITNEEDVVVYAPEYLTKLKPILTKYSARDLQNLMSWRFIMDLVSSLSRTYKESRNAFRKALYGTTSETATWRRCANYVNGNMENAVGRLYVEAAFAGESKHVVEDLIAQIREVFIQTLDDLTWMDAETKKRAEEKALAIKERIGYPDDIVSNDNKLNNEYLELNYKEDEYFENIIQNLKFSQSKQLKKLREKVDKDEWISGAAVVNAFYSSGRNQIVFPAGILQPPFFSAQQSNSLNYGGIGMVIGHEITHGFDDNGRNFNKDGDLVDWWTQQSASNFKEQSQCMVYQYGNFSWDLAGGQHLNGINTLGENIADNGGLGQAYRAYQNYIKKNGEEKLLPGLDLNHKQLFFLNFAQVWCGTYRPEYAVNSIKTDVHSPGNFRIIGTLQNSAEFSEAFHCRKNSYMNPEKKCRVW
Procedure: . Pharmacol. 191:341-366 (2009)). A comparison was made between the sensitivity of the construct of formula IV and ANP to metabolism by human NEP (hNEP) (substrate concentration 50 μM). After 2-hour exposure to hNEP solution at 37° C., there was minimal degradation of the construct of formula IV (92% remaining; n=5). In contrast, under these conditions ANP was about 90% degraded after 60 minutes and 100% after 2-hours (n=4). […] Results are shown in FIG. 1; results in FIG. 1 are expressed as the percent of the starting material, and are either the mean of 1-5 experiments or, where error bars are shown, are the mean±standard deviation.

[1] = Potter et al. 2009; cited from earlier work
[2] = tested on: bronchoconstrictor response evoked by methacholine; test: Methacholine-evoked bronchoconstriction in anesthetized guinea pigs, intratracheal delivery; assay type: in vivo, guinea pigs (Dunkin Hartley); conditions: 1000 μg/kg IT, 15 minutes, methacholine 10 μg/mL
Procedure: Studies were conducted with intratracheal (IT) delivery of the construct of formula IV in anesthetized guinea pigs (Dunkin Hartley) challenged with the muscarinic receptor agonist, methacholine. […] The inhibition was maintained for all doses after the 60 minute pretreatment time. The duration of action of 10 μg/kg and 100 μg/kg doses of the construct of formula IV was explored (FIGS. 4C and 4D). For both doses the inhibition extended to 120 minutes post-administration, although it was reduced, with inhibitory effect absent after 240 minutes pretreatment.

In the case of `CC(C)NCC(O)c1ccc(O)c(O)c1` (stereo not shown) [Isoprenaline], the “relaxation of carbachol-induced contraction” value (human lung tissues; 100 μM, human lung slices) is reported as “about 75%” and the Isoproterenol-mediated broncho-dilatation (human lung tissues; in the absence of the construct of formula IV, n=4) is reported as 88.2±3.4%.
`CCCCCCC(=O)N[C@H]1CSSC[C@@H](C(=O)N[C@@H](Cc2ccc(O)cc2)C(=O)N2C[C@H](C(N)=O)NC(=O)[C@@H]2CCCNC(=N)N)NC(=O)[C@H](CO)NC(=O)[C@H]([C@@H](C)CC)NC(=O)[C@H](CCCNC(=N)N)NC(=O)[C@H](CC(=O)O)NC(=O)[C@@H](CCCC)NC(=O)[C@H](CCCNC(=N)N)NC(=O)CNC(=O)[C@@H](C)NC(=O)[C@H](Cc2ccccc2)NC(=O)[C@H](Cc2c[nH]cn2)NC1=O` [construct of formula IV] (Heptanoyl-CHF[dA]GR[dNle]DRISCY-X1; disulfide 1-12) gave a remaining at 2 h, 50 μM (human NEP (hNEP)) of 92%.
For `CC[C@H](C)[C@@H]1NC(=O)[C@H](CCCNC(=N)N)NC(=O)[C@H](CC(=O)O)NC(=O)[C@H](CC(C)C)NC(=O)[C@H](CCCCN)NC(=O)[C@H](CC(C)C)NC(=O)CNC(=O)[C@H](Cc2ccccc2)NC(=O)[C@@H](NC(=O)CNC(=O)[C@H](CCCCN)NC(=O)[C@H](CO)NC(=O)[C@H](CC(C)C)NC(=O)CN)CSSC[C@@H](C(=O)O)NC(=O)CNC(=O)[C@H](CC(C)C)NC(=O)CNC(=O)[C@H](CO)NC(=O)[C@H](CCSC)NC(=O)[C@H](CO)NC(=O)CNC1=O` [hCNP], the remaining at 1 h, 50 μM (human NEP (hNEP); 60 min, read-out: percent remaining after 60-min incubation with hNEP) is listed as 39%, the remaining at 2 h, 50 μM (human NEP (hNEP)) is listed as 1% and the “reported human plasma half-life” value [1] is listed as “about 2 minutes”.
In the case of `CC(C)(C)NCC(O)c1ccc(O)c(CO)c1` (stereo not shown) [salbutamol], the “maximum inhibition of bronchoconstrictor response” value [2] is reported as 87±2%.
